Measurements published in ChEMBL document CHEMBL1133425, “Synthesis and dopaminergic activity of heterocyclic analogues of 5,6-dihydroxy-2-aminotetralins” (2000).

How the values were obtained:
[1] = species on record: Oryctolagus cuniculus; assay: D2-like activity was evaluated as pD2 on a superfused rabbit ear artery; assay type: functional
[2] = species on record: Oryctolagus cuniculus; assay: D1-like activity was evaluated as pD2 on a superfused rabbit splenic artery; assay type: functional

| Compound | pD2 [1] | pD2 [2] |
| --- | --- | --- |
| CCCN(CCCCCCNCCc1ccc(S(C)(=O)=O)cc1)C1CCc2nc(N)sc2C1 (centres undefined) | 8.4 | 6.3 |
| CCCN(CCC)C1CCc2c(ccc(O)c2O)C1 (centres undefined) | 9.8 | 6.5 |
| CS(=O)(=O)c1ccc(CCNCCCCCCNC2CCc3[nH]ccc3C2)cc1 (centres undefined) | <6 | <5 |
| CCCN(CCCCCCNCCc1ccc(S(C)(=O)=O)cc1)C1CCc2ncccc2C1 (centres undefined) | 8.4 | <5 |
| CCCN(CCCCCCN(CCC)C1CCc2nc(O)ccc2C1)CCc1ccc(S(C)(=O)=O)cc1 (centres undefined) |  | <5 |
| CCCN(CCCCCCNCCc1ccc(S(C)(=O)=O)cc1)[C@H]1CCc2c(ccc(O)c2O)C1 | 10.1 | 8.6 |
| CCCN(CCCCCCN(CCC)CCc1cccnc1)CCc1ccc(S(C)(=O)=O)cc1 | <6 | 5.5 |
| CS(=O)(=O)c1ccc(CCNCCCCCCNCCc2cccnc2)cc1 | 5.5 | <5 |
| CCCN(CCCCCCNCCc1ccc(S(C)(=O)=O)cc1)C1CCc2[nH]ccc2C1 (centres undefined) |  | <5 |
| CS(=O)(=O)c1ccc(CCNCCCCCCNC2CCc3ncccc3C2)cc1 (centres undefined) | 6.3 | <5 |
| CS(=O)(=O)c1ccc(CCNCCCCCCNCCc2cc[nH]c2)cc1 |  | <5 |
